Results published in patent US20090029366A1 (priority 2007, published 2009).

Molecular target: T1, human HCN2 channel (Homo sapiens, UniProt Q9UL51)
T1 construct: expressed in transfected cells; host or cells: HEK-293H (clones #4, #8, #11, #12)
T1 sequence (Q9UL51 1-889): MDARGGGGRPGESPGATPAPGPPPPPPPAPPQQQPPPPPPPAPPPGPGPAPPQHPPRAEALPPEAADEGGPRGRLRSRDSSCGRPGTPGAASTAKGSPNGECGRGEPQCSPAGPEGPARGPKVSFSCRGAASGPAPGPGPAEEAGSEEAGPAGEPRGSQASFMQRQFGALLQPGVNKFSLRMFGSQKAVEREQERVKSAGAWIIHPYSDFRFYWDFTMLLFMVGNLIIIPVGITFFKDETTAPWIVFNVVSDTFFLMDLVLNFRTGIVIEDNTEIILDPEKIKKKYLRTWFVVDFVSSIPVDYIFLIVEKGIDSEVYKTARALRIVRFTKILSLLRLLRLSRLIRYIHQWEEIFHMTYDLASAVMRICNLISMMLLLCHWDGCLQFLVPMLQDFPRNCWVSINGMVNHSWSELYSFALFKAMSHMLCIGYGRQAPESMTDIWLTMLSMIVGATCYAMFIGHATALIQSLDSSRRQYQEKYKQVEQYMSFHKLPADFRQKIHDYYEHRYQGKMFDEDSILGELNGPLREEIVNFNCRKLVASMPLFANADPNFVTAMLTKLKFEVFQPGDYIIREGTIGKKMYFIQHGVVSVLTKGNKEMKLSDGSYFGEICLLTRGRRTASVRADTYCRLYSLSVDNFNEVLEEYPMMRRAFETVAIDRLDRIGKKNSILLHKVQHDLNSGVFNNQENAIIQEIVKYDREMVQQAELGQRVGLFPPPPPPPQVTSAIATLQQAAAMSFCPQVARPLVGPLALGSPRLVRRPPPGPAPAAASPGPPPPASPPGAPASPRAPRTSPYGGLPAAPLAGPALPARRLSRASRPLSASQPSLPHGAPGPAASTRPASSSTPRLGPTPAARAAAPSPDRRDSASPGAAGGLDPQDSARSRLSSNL
Experiment: MPSD FLIPR 384 assay on HEK-293H clones expressing HCN2
Format: cell-based
Details: 30 μM ZD7288
Method: HEK-293H cells were transfected with constructs encoding a human HCN2 channel essentially as described in Example 1. Cell lines were generated from a single clone according to standard protocols. The cells were incubated in HBSS/MPSD (control cells) or HBSS/MPSD and 30 μM ZD7288 (test cells) using a 384 well plate format, followed by the addition of the sodium/potassium diluent solution essentially as described in Examples 3 and 5. FIGS. 14A-14D show the effect of ZD7288 on each of the four clones expressing HCN2 channels. FIGS. 14A (clone #4), 14B (clone #8), 14C (clone #11), and 14D (clone #12) each depict the change in fluorescence over time for cells incubated in saline only (overlaid lower traces ) and for cells incubated in saline containing the HCN channel inhibitor ZD7288 (overlaid upper traces ). […] The Z-factor was between 0.56 and 0.64, and the covariance (CV) was between from 6.6 to 9.9.

SMILES: CCN(c1ccccc1)c1cc(=NC)n(C)c(C)n1.Cl [ZD7288]
- blockade of hyperpolarization for each of the HCN2 clones (384 well, clones #4, #8, #11, #12): effectively blocked hyperpolarization
- Δfluorescence (saline + ZD7288), Mean (Clone #4, saline only −24421): −2392 RFU
- Δfluorescence (saline + ZD7288), Mean (Clone #8, saline only −23600): −3006 RFU
- Δfluorescence (saline + ZD7288), Mean (Clone #11, saline only −25477): −2413 RFU
- Δfluorescence (saline + ZD7288), Mean (Clone #12, saline only −26367): −4834 RFU
